target: T1, P2X7 receptor (Homo sapiens, UniProt Q99572); assay: High throughput P2X7 calcium mobilization assay (Example 4A); assay type: cell-based; details: SH-SY5Y cells; 50% decrease in fluorescence response of cells exposed to 80 μM BzATP; Table I
T1 construct: host or cells: SH-SY5Y
T1 sequence (Q99572 1-595): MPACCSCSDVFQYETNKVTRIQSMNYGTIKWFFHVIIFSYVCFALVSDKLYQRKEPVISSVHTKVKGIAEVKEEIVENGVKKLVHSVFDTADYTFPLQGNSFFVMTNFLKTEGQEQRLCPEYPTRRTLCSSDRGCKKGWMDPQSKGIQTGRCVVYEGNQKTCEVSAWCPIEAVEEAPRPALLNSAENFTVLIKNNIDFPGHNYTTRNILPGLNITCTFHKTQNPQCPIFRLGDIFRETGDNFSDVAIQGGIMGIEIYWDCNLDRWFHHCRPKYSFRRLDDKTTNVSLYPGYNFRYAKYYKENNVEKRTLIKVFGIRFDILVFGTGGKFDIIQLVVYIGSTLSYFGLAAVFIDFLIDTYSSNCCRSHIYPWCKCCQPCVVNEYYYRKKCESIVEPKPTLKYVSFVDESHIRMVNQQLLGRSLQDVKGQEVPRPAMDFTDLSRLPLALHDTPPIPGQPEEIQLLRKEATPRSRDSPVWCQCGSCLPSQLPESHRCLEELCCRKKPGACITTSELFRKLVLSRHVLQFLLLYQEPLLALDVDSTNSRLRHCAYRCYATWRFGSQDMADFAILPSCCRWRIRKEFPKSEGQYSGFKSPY
Protocol: A. High Throughput Assay of P2X7 Receptors
SH-SY5Y cells, ATCC Number CRL-2266, (American Type Culture Collection, Manassas, Va.) are cultured under DMEM/High medium supplemented with 10% FBS, and 10 mM HEPES (Invitrogen Corp., Carlsbad, Calif.) in 5% CO2 and at 37° C. One day prior to the experiment, cells are plated at a density of 100,000 cells/well in a 96 well black/clear TC plate (Corning® Costar®, Sigma-Aldrich Co., St. Louis, Mo.). At the beginning of the experiment, the culture medium is removed and cells are incubated with 50 μL of 2.3 μM Fluo-4 AM dye (Invitrogen Corp.) in the assay solution (5 mM KCl, 9.6 mM NaH2PO4.H2O, 25 mM HEPES, 280 mM sucrose, 5 mM glucose, and 0.5 mM CaCl2; pH is adjusted to 7.4 with NaOH) for an hour at 37° C. After one hour dye incubation, wells are rinsed once with 50 μL assay solution, and are then incubated for an hour at room temperature with 100 μL assay solution containing the test compound. The final concentration of test compound generally ranges from 1 to 2500 nM; for positive control cells, no test compound is added. After the one hour incubation, plates are transferred to a FLIPR^TETRA instrument (Molecular Devices, Sunnyvale, Calif.) for calcium mobilization analysis.
For determination of antagonist activity, 50 μL, of P2X7 agonist (2′(3)-O-(4-benzoyl-benzoyl)adenosine 5′-triphosephate (BzATP; Sigma-Aldrich) in the assay solution is transferred using the FLIPR into the plate, such that the final agonist concentration is 80 μM (about EC50). In negative control cells, 50 μL of assay solution without agonist is added at this stage. The peak fluorescence signal over a 2 minute period is then measured.
First, the average maximum relative fluorescent unit (RFU) response from the negative control wells (no agonist) is subtracted from the maximum response detected for each of the other experimental wells. Second, average maximum RFU response is calculated for the positive control wells (agonist wells).

| IC50 [µM] | SMILES |
| --- | --- |
| ≤ 2 | Cc1cnc(-n2cc(C(=O)NCC34CC5CC(CC(C5)C3)C4)c(C)n2)nc1Br [Compound 91, N-(adamantan-1-ylmethyl)-1-(4-bromo-5-methylpyrimidin-2-yl)-3-methyl-1H-pyrazole-4-carboxamide] |
| ≤ 2 | CNc1nc(-n2cc(C(=O)NCC34CC5CC(CC(C5)C3)C4)c(C)n2)ncc1C [Compound 92, N-(adamantan-1-ylmethyl)-3-methyl-1-[5-methyl-4-(methylamino)pyrimidin-2-yl]-1H-pyrazole-4-carboxamide] |
| ≤ 2 | Cc1cnc(-n2cc(C(=O)NCC34CC5CC(CC(C5)C3)C4)c(C)n2)nc1-c1ccccc1 [Compound 93, N-(adamantan-1-ylmethyl)-3-methyl-1-(5-methyl-4-phenylpyrimidin-2-yl)-1H-pyrazole-4-carboxamide] |
| ≤ 2 | Cc1cnc(-n2cc(C(=O)NCC34CC5CC(CC(C5)C3)C4)c(C)n2)nc1 [Compound 94, N-(adamantan-1-ylmethyl)-3-methyl-1-(5-methylpyrimidin-2-yl)-1H-pyrazole-4-carboxamide] |
| ≤ 2 | Cc1cnc(-n2cc(C(=O)NCC34CC5CC(CC(C5)C3)C4)c(C)n2)nc1-c1cccnc1 [Compound 95, N-(adamantan-1-ylmethyl)-3-methyl-1-(5-methyl-4-pyridin-3-ylpyrimidin-2-yl)-1H-pyrazole-4-carboxamide] |
| ≤ 2 | Cc1cnc(-n2cc(C(=O)NCC34CC5CC(CC(C5)C3)C4)c(C)n2)nc1C(N)=O [Compound 96, 2-{4-[(adamantan-1-ylmethyl)carbamoyl]-3-methyl-1H-pyrazol-1-yl}-5-methylpyrimidine-4-carboxamide] |
| ≤ 2 | Cc1ccc(-n2cc(C(=O)NCC34CC5CC(CC(C5)C3)C4)c(C)n2)nc1 [Compound 97, N-(adamantan-1-ylmethyl)-3-methyl-1-(5-methylpyridin-2-yl)-1H-pyrazole-4-carboxamide] |
| ≤ 2 | Cc1nn(-c2nccc(N)n2)cc1C(=O)NCC12CC3CC(CC(C3)C1)C2 [Compound 99, N-(adamantan-1-ylmethyl)-1-(4-aminopyrimidin-2-yl)-3-methyl-1H-pyrazole-4-carboxamide] |

Second part, the molecule before the results:

| SMILES | IC50 [µM] |
| --- | --- |
| CCCc1ccc(C(=O)NCC23CC4CC(CC(C4)C2)C3)s1 [Compound 78, N-(1-adamantylmethyl)-5-propylthiophene-2-carboxamide] | ≤ 2 |
| Cn1nc(C(F)(F)F)cc1-c1ccc(C(=O)NCC23CC4CC(CC(C4)C2)C3)s1 [Compound 80, N-(1-adamantylmethyl)-5-[1-methyl-3-(trifluoromethyl)-1H-pyrazol-5-yl]thiophene-2-carboxamide] | ≤ 2 |
| Cn1nc(C(F)(F)F)cc1-c1ccc(C(=O)NCCC23CC4CC(CC(C4)C2)C3)s1 [Compound 85, N-[2-(1-adamantyl)ethyl]-5-[1-methyl-3-(trifluoromethyl)-1H-pyrazol-5-yl]thiophene-2-carboxamide] | ≤ 2 |
| Cc1csc(C(=O)NCC23CC4CC(CC(C4)C2)C3)c1Cl [Compound 87, N-(adamantan-1-ylmethyl)-3-chloro-4-methylthiophene-2-carboxamide] | ≤ 2 |
| Cc1nn(-c2ccccn2)cc1C(=O)NCC12CC3CC(CC(C3)C1)C2 [Compound 98] | ≤ 2 |
| Cc1cnc(-n2cc(C(=O)NCC34CC5CC(CC(C5)C3)C4)c(C(C)C)n2)nc1N [Compound 100, N-(adamantan-1-ylmethyl)-1-(4-amino-5-methylpyrimidin-2-yl)-3-isopropyl-1H-pyrazole-4-carboxamide] | ≤ 2 |
| Cc1nn(-c2ccncc2)cc1C(=O)NCC12CC3CC(CC(C3)C1)C2 [Compound 101, N-(adamantan-1-ylmethyl)-3-methyl-1-pyridin-4-yl-1H-pyrazole-4-carboxamide] | ≤ 2 |
| CCc1cnc(-n2cc(C(=O)NCC34CC5CC(CC(C5)C3)C4)c(C)n2)nc1 [Compound 102, N-(adamantan-1-ylmethyl)-1-(5-ethylpyrimidin-2-yl)-3-methyl-1H-pyrazole-4-carboxamide] | ≤ 2 |
